Publication PMC3008316 (Antiviral research, 2009)
Like-named read-outs stand apart in the source and are kept apart here. Marks after values point to notes of the source that are not given here.

Tests used:
[1] = system: RVFV vaccine strain MP-12; experiment: microbe, parasite or virus in culture; settings: Rift Valley fever virus, Vero 76, read-out: EC90 ± SD (VYR)
PTV, Adames strain [2] = experiment: microbe, parasite or virus in culture; settings: Punta Toro virus, Vero 76, read-out: EC90 ± SD (VYR)
[3] = system: Junin virus (JUNV) vaccine strain Candid 1; experiment: microbe, parasite or virus in culture; settings: Mammarenavirus juninense, Vero, read-out: EC90 ± SD (VYR)
PICV, strain An 4763 [4] = format: in vivo, Syrian hamsters
PICV, strain An 4763 [5] = system: PICV, strain An 4763
[6] = system: phleboviruses (RVFV, PTV, SFNV); experiment: organism not typed; format: cell-based
PTV, Adames strain [7] = system: PTV, Adames strain
PTV, Adames strain [8] = system: PTV, Adames strain; remark: listed apart in the source
[9] = system: Tacaribe virus (TCRV), strain TRVL 11573; experiment: microbe, parasite or virus in culture; settings: Mammarenavirus tacaribeense, Vero 76, read-out: EC50 ± SD (CPER)
in vitro [10] = settings: monkey, CC50 ± SD
[11] = system: Sandfly fever virus, Naples strain (SFNV); experiment: microbe, parasite or virus in culture; settings: sandfly fever Sicilian virus, Vero 76, read-out: EC50 ± SD (CPER)
[12] = system: Junin virus (JUNV) vaccine strain Candid 1
[13] = system: Tacaribe virus (TCRV), strain TRVL 11573
[14] = system: Sandfly fever virus, Naples strain (SFNV)
PTV, Adames strain [15] = experiment: microbe, parasite or virus in culture; settings: Punta Toro virus, Vero 76, read-out: EC50 ± SD (CPER)
PICV, strain An 4763 [16] = system: PICV, strain An 4763; remark: listed apart in the source
PTV, Adames strain [17] = system: PTV, Adames strain; set-up: species or system Syrian hamsters; settings: hamster, in vivo
PICV, strain An 4763 [18] = experiment: microbe, parasite or virus in culture; settings: Pichinde virus, Vero, read-out: EC90 ± SD (VYR)
[19] = system: Tacaribe virus (TCRV), strain TRVL 11573; experiment: microbe, parasite or virus in culture; settings: Mammarenavirus tacaribeense, Vero 76, read-out: EC90 ± SD (VYR)
PTV, Adames strain [20] = system: PTV, Adames strain; set-up: species or system C57BL/6 mice; settings: mouse, in vivo
[21] = system: Sandfly fever virus, Naples strain (SFNV); experiment: microbe, parasite or virus in culture; settings: sandfly fever Sicilian virus, Vero 76, read-out: EC90 ± SD (VYR)
Vero cells = settings: monkey
in vitro [22] = settings: monkey, CC50 ± SD; remark: listed apart in the source
[23] = system: RVFV vaccine strain MP-12; experiment: microbe, parasite or virus in culture; settings: Rift Valley fever virus, Vero 76, read-out: EC50 ± SD (CPER)
[24] = system: Tacaribe virus (TCRV), strain TRVL 11573; remark: listed apart in the source
[25] = system: RVFV vaccine strain MP-12
[26] = system: Junin virus (JUNV) vaccine strain Candid 1; remark: listed apart in the source
PICV, strain An 4763 [27] = experiment: microbe, parasite or virus in culture; settings: Pichinde virus, Vero, read-out: EC50 ± SD (CPER)
[28] = system: Sandfly fever virus, Naples strain (SFNV); remark: listed apart in the source
[29] = system: Junin virus (JUNV) vaccine strain Candid 1; experiment: microbe, parasite or virus in culture; settings: Mammarenavirus juninense, Vero, read-out: EC50 ± SD (CPER)
[30] = system: RVFV vaccine strain MP-12; remark: listed apart in the source
[31] = hamster, in vivo, po, 25 mg/kg/day
[32] = hamster, in vivo, po, 50 mg/kg/day
[33] = hamster, in vivo, po, 100 mg/kg/day

NC(=O)c1nc(F)cnc1O [T-705, 6-fluoro-3-hydroxy-2-pyrazinecarboxamide]
EC90 [1]: 12 ± 4 µM | EC90 (PTV, Adames strain [2]): 19 ± 11 µM | EC90 [3]: 14 ± 3 µM | Potency relative to T-1106 based on ALT molar dose response (PICV, strain An 4763 [4]; hamster, in vivo): 2.6 fold | Potency relative to T-1106 based on ED50 (PICV, strain An 4763 [4]; hamster, in vivo): 6.1 times | Survival compared to placebo (PICV, strain An 4763 [4]; hamster, in vivo): significantly protected | ED50 (survival) (PICV, strain An 4763 [4]; hamster, in vivo, po): 72 µmol/kg/day | ALT ± SD (PICV, strain An 4763 [4]; [31]): 859 ± 782 international units per liter | Mean virus titer ± SD, liver (PICV, strain An 4763 [4]; [31]): 7.6 ± 0.8 (100) | Mean virus titer ± SD, serum (PICV, strain An 4763 [4]; [31]): 6.6 ± 1.0 (100) | Percentage of animals with detectable virus, liver (PICV, strain An 4763 [4]; [31]): 7.6 ± 0.8 (100) % | Percentage of animals with detectable virus, serum (PICV, strain An 4763 [4]; [31]): 6.6 ± 1.0 (100) % | Mean virus titer ± SD, liver (PICV, strain An 4763 [4]; [32]): 5.8 ± 1.1 (100) | Mean virus titer ± SD, serum (PICV, strain An 4763 [4]; [32]): < 3.8 ± 1.6 (80) | Percentage of animals with detectable virus, liver (PICV, strain An 4763 [4]; [32]): 5.8 ± 1.1 (100) % | Percentage of animals with detectable virus, serum (PICV, strain An 4763 [4]; [32]): < 3.8 ± 1.6 (80) % | Mean virus titer ± SD, liver (PICV, strain An 4763 [4]; [33]): < 3.3 ± 0.5 (60) | Mean virus titer ± SD, serum (PICV, strain An 4763 [4]; [33]): < 1.8 (0) ^** | Percentage of animals with detectable virus, liver (PICV, strain An 4763 [4]; [33]): < 3.3 ± 0.5 (60) % | Percentage of animals with detectable virus, serum (PICV, strain An 4763 [4]; [33]): < 1.8 (0) ^** % | Survival outcome (PICV, strain An 4763 [4]; n=10): complete protection | Animals protected (survival) (PICV, strain An 4763 [4]; n=10, 25 mg/kg/day): 70% | Animals protected (survival) (PICV, strain An 4763 [4]; n=10, 50 mg/kg/day): 80% | SI (CC50/EC50) (PICV, strain An 4763 [5]): 194 | Inhibitory concentrations, range [6]: 3 to 55 µM | EC50 ([6]; read-out: EC50 values, range (CPE reduction assay)): 27 to 55 µM | EC90 ([6]; read-out: EC90 values, range (VYR)): 3 to 19 µM | SI (CC50/EC50) (PTV, Adames strain [7]): >68 | SI (CC50/EC90) (PTV, Adames strain [8]): >197 | EC50 [9]: 26 ± 13 µM | CC50 (in vitro [10]): > 6360 µM | EC50 [11]: 30 ± 15 µM | SI (CC50/EC50) [12]: >285 | SI (CC50/EC90) [13]: >405 | SI (CC50/EC50) [14]: 195 | EC50 (PTV, Adames strain [15]): 55 ± 35 µM | SI (CC50/EC90) (PICV, strain An 4763 [16]): 202 | ED50 (survival) (PTV, Adames strain [17]): 112 µmol/kg/day | Mean virus titer ± SD, liver (PTV, Adames strain [17]): < 3.9 ± 1.5 (40) | Survival compared to placebo (PTV, Adames strain [17]): significant protection | ALT ± SD (PTV, Adames strain [17]; po, 25 mg/kg/day): 820 ± 1148 international units per liter | Mean virus titer ± SD, liver (PTV, Adames strain [17]; po, 25 mg/kg/day): < 5.9 ± 1.8 (80) | Mean virus titer ± SD, serum (PTV, Adames strain [17]; po, 25 mg/kg/day): < 5.4 ± 3.4 (60) | Percentage of animals with detectable virus, liver (PTV, Adames strain [17]; po, 25 mg/kg/day): < 5.9 ± 1.8 (80) % | Percentage of animals with detectable virus, serum (PTV, Adames strain [17]; po, 25 mg/kg/day): < 5.4 ± 3.4 (60) % | ALT ± SD (PTV, Adames strain [17]; po, 50 mg/kg/day): 52 ± 79 international units per liter | Mean virus titer ± SD, liver (PTV, Adames strain [17]; po, 50 mg/kg/day): < 3.6 ± 1.7 (40) | Percentage of animals with detectable virus, liver (PTV, Adames strain [17]; po, 50 mg/kg/day): < 3.6 ± 1.7 (40) % | ALT ± SD (PTV, Adames strain [17]; po, 100 mg/kg/day): 38 ± 19 international units per liter | Mean virus titer ± SD, serum (PTV, Adames strain [17]; po, 100 mg/kg/day): < 3.1 ± 1.9 (40) | Percentage of animals with detectable virus, liver (PTV, Adames strain [17]; po, 100 mg/kg/day): < 3.9 ± 1.5 (40) % | Percentage of animals with detectable virus, serum (PTV, Adames strain [17]; po, 100 mg/kg/day): < 3.1 ± 1.9 (40) % | EC90 (PICV, strain An 4763 [18]): 24 ± 5 µM | EC90 [19]: 12 ± 4 µM | ED50 (survival) (PTV, Adames strain [20]): 159 µmol/kg/day | EC90 [21]: 3 ± 1 µM | CC50 (Vero cells): 4860 ± 409 µM | CC50 (in vitro [22]): > 5410 µM | EC50 [23]: 27 ± 5 µM | SI (CC50/EC50) [24]: >187 | SI (CC50/EC50) [25]: >236 | SI (CC50/EC90) [26]: >387 | EC50 (PICV, strain An 4763 [27]): 25 ± 6 µM | SI (CC50/EC90) [28]: 1952 | EC50 [29]: 19 ± 5 µM | SI (CC50/EC90) [30]: >530
